{
  "source": "patent US20190192699A1",
  "about": "“NUCLEAR IMAGING AND RADIOTHERAPEUTICS AGENTS TARGETING CARBONIC ANHYDRASE IX AND USES THEREOF” (THE JOHNS HOPKINS UNIVERSITY, priority 2016, published 2019)",
  "key": {"CAIX [1]": {"target": "T1, CAIX (Homo sapiens, UniProt Q16790)", "test": "Competitive fluorescence polarization assay for [113/115In]XYIMSR-01", "format": "binding", "parameters": "purchased R&D Systems", "description": "(§1) General Procedures. Solvents and chemicals obtained from commercial sources were of analytical grade or better and used without further purification. Fmoc-protected azidolysine, HBTU, and N-α-fmoc-L-aspartic acid α-tert-butyl ester were purchased from Chem Impex International, Inc. (Wooddale, Ill.). Carrier-free [^111In]InCl3 was purchased from MDS Nordion (Ottawa, ON, Canada). DOTA-NHS-ester (1,4,7,10-tetraazacyclododecane-1,4,7,10-tetraacetic acid mono N-hydroxysuccinimide ester) was purchased from Macrocyclics, Inc. (Dallas, Tex.). Indium (III) nitrate, triethylsilane (Et3SiH), N,N-diisopropylethylamine (DIEA), triethylamine (TEA), piperidine, 4,4-bis(4-hydroxyphenyl)valeric acid, copper iodide (CuI), and tris[(1-benzyl-1H-1,2,3-triazol-4-yl)methyl]amine (TBTA) were purchased from Sigma-Aldrich (Saint Louis, Mo.). Pre-loaded O-bis-(aminoethyl)ethylene glycol on trityl resin was purchased from EMD Millipore (Billerica, Mass.). Flash chromatography was performed using MP SiliTech 32-63 D 60 Å silica gel purchased from Bodman (Aston, Pa.). Recombinant human CAIX was purchased from R&D Systems (Minneapolis, Minn.). 1H NMR spectra were recorded on a Bruker Ultrashield 500 MHz spectrometer. Chemical shifts (δ) were reported in ppm downfield by reference to proton resonances resulting from incomplete deuteration of the NMR solvent. ESI mass spectra were obtained on a Bruker Daltonics Esquire 3000 Plus spectrometer (Billerica, Mass.).\nCompetitive Fluorescence Polarization Assay for [^113/115In]XYIMSR-01. Fluorescence polarization (FP) experiments were performed in 21 μL of the assay buffer (12.5 mM Tris-HCl, pH 7.5, 75 mM NaCl) in black flat bottom 384-well microplates (Corning, Inc., New York, N.Y.) The FP reaction employed 100 nM of purified CAIX (R&D systems, Minneapolis, Minn.) and 80 nM FITC-labeled 8 (Wichert, et al., 2015) within the assay buffer. The FP values were measured as mP units using the Victor3 multi-label plate reader equipped with excitation (485 nm) and emission (535 nm) filters (Perkin Elmer, Waltham, Mass.). 100 nM CAIX was incubated with serially diluted (from 1 μM to 61 fM) concentrations of the three targeting molecules, 2, XYIMSR-01, and [^113/115In]XYIMSR-01 for 30 min at room temperature in 384-well plates. 80 nM 8 was added to each well and the reaction was incubated for 30 min at room temperature followed by FP measurement. Experiments were carried out in triplicate and the concentration resulting in 50% response (IC50) was calculated in GraphPad Prism 5 (GraphPad Software, La Jolla, Calif.) using the sigmoidal dose-response regression function."}, "CAIX [2]": {"target": "T1, CAIX", "test": "Competitive fluorescence polarization assay for [Al19F]XYIMSR-04, [63/65Cu]XYIMSR-06 and [175Lu]XYIMSR-01", "format": "binding", "parameters": "purchased R&D Systems", "conditions": "100 nM CAIX, 80 nM FITC-labeled ligand; read-out: IC50, competitive fluorescence polarization (similar method)", "description": "as §1\nCompetitive Fluorescence Polarization Assay for [Al^19F]XYIMSR-04, [^63/65Cu]XYIMSR-06, and [^175Lu]XYIMSR-01. Fluorescence polarization (FP) experiments were performed in 21 μL of the assay buffer (12.5 mM Tris-HCl, pH 7.5, 75 mM NaCl) in transparent flat bottom 384 well Small Volume™ LoBase Microplates (Greiner Bio-One, Frickenhausen Germany). The FP reaction employed 100 nM of purified CAIX (R&D systems, Minneapolis, Minn.) and 80 nM FITC-labeled ligand within the assay buffer. The FP values were measured as mP units using the Safire2™ plate reader (Tecan, Morrisville, N.C.) with excitation at 475 nm and emission at 532 nm emission. 100 nM CAIX was incubated with serially diluted (from 8 μM to 488.2 fM) concentrations of the […] targeting molecules, 2, [Al^19F]XYIMSR-04, [^63/65Cu]XYIMSR-06 and [^175Lu]XYIMSR-01 for 30 min at room temperature in 384 well plates. 80 nM FITC-labeled ligand was added to each well and the reaction was incubated for 30 min at room temperature followed by FP measurements. Experiments were carried out in triplicate and the concentration resulting in 50% response (IC50) was calculated in GraphPad Prism 5 (GraphPad Software, La Jolla, Calif.) using the sigmoidal dose-response regression function."}, "CAIX [3]": {"target": "T1, CAIX", "parameters": "host or cells: ccRCC tumours in patients", "conditions": "Wichert et al., 2015; read-out: Kd for CAIX (known / reported); cited from earlier work"}},
  "data": [
    {"smiles": "CC(CCC(=O)N[C@@H](CC(=O)N[C@@H](CC(=O)N[C@@H](CCCCn1cc(CCCC(=O)Nc2nnc(S(N)(=O)=O)s2)nn1)C(=O)NCCOCCOCCN)C(=O)O)C(=O)O)(c1ccc(O)cc1)c1ccc(O)cc1", "note": "[compound 3, N^4-((S)-1-((2-(2-(2-aminoethoxy)ethoxy)ethyl)amino)-1-oxo-6-(4-(4-oxo-4((5-sulfamoyl-1,3,4-thiadiazol-2-yl)amino)butyl)-1H-1,2,3-triazol-1-yl)hexan-2-yl)-N^2-((S)-3-(4,4-bis(4-hydroxyphenyl)pentanamido)-3-carboxypropanoyl)-L-asparagine, reference compound]", "values": [
      {"measurement": "IC50", "setting": "CAIX [1]; 100 nM CAIX, 80 nM FITC-labeled 8, read-out: IC50, inhibition of fluorescence polarization of FITC labeled 8", "result": 75.9, "unit": "nM"},
      {"measurement": "binding affinity to CAIX (in words)", "setting": "CAIX [1]; competitive fluorescence polarization", "result": "high binding affinity"},
      {"measurement": "IC50", "setting": "CAIX [2]", "result": "63.6 ± 2.8", "unit": "nM"},
      {"measurement": "Kd", "setting": "CAIX [3]", "result": 2.6, "unit": "nM"}
    ]}
  ]
}
